CC50 and Kd data for 20 molecules are collected here from patent US8399683B2 (TetraLogic Pharmaceuticals, priority 2008, dated 2013).

One may read the CC50 as the concentration giving 50% cytotoxicity. A lower CC50 goes with harm at low concentration. What is called Kd is the equilibrium constant for the complex coming apart.

One assay concerns SK-OV-3 cells. Put plainly: Growth inhibition of ovarian cancer cell line SK-OV-3 (MTT assay, cell survival). Format: cell-based. To be noted: Homo sapiens, drug concentration that results in 50% cell survival, 72 hrs incubation, reported as ranges. The procedure, abridged: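 After overnight seeding in McCoy's medium with 10% FBS, SK-OV-3 cells were exposed to compound at 0.003-10 μM for 72 hrs at 37° C. MTT was then added for 3 h, with DMSO solubilization and OD read at 535 nm. CC50 is the concentration giving 50% survival relative to untreated control, reported as ranges.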

The target in another assay is cIAP-1 BIR-3 (Homo sapiens, UniProt Q13490). Kind of assay: Fluorescence polarization binding affinity to cIAP-1 BIR-3 (competition with AbuRPF-K(5-Fam)-NH2). To be noted: 5 nM labeled peptide, 40 nM BIR3, 15 min at RT, pH 7.5; reported as ranges; read-out: KD (c-IAP-1 BIR3). The procedure, abridged:
(§1)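 Test peptides at varied concentrations competed with 5 nM fluorescent Smac-mimetic tracer for 40 nM BIR3 domain, 15 min at RT in 0.1M potassium phosphate pH 7.5 with […] bovine g-globulin. Polarization (mP) read at 485/520 nm; KD reported in bins (A=<0.1 μM, B=0.1–1 μM, C>1–10 μM, D=>10 μM).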
A general note: In fluorescence polarisation assays a small probe gives low polarisation when free and higher when bound to something large.

The next assay deals with T1, XIAP BIR-3 (Homo sapiens, UniProt P98170).
T1 construct: 40 nM of the respective IAP BIR3
T1 sequence (P98170 241-356 limits assumed): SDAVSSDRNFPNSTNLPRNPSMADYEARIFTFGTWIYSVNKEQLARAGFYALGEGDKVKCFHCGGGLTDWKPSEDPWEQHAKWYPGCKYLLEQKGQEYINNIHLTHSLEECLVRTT
Kind of assay: Fluorescence polarization binding affinity to XIAP BIR-3 (competition with AbuRPF-K(5-Fam)-NH2). To be noted: 5 nM labeled peptide, 40 nM BIR3, 15 min at RT, pH 7.5; reported as ranges. The method, boiled down: as §1

cIAP-1 BIR-3, sequence (Q13490 266-352 limits assumed): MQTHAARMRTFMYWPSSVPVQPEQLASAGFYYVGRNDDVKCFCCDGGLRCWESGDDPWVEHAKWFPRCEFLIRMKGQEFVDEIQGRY

`CN[C@@H](C)C(=O)N[C@H](C(=O)N1CC[C@@H]2[C@H]1[C@@H](c1c[nH]c3cc(F)ccc13)CN2S(C)(=O)=O)[C@@H](C)OC` [Example 58, N-{1-[6-(6-Fluoro-1H-indol-3-yl)-4-methanesulfonyl-hexahydro-pyrrolo[3,2-b]pyrrole-1-carbonyl]-2-methoxy-propyl}-2-methylamino-propionamide] yielded a half-maximal cytotoxic concentration (CC50) in the assay on SK-OV-3 cells of less than 100 nM. Besides, the dissociation constant Kd at cIAP-1 BIR-3 and at XIAP BIR-3 was less than 100 nM each time.
Take `CN[C@@H](C)C(=O)N[C@H](C(=O)N1CC[C@H]2NC[C@@H](c3c[nH]c4ccccc34)[C@H]21)C1CCCCC1` [Example 1, N-{1S-Cyclohexyl-2-[(3aR,6aR)-6R-(1H-indol-3-yl)-hexahydro-pyrrolo[3,2-b]pyrrol-1-yl]-2-oxo-ethyl}-2S-methylamino-propionamide]: the CC50 in the assay with SK-OV-3 cells was in the range of 1000 to 10000 nM. Further, the Kd at cIAP-1 BIR-3 and on XIAP BIR-3 was greater than 10000 nM in each case.
`CC[C@H](NC(=O)[C@H](C)NC)C(=O)N1CC[C@@H]2[C@H]1[C@H](c1c[nH]c3cc(F)ccc13)CN2S(C)(=O)=O` [Example 45, N-{1-[6-(6-Fluoro-1H-indol-3-yl)-4-methanesulfonyl-hexahydro-pyrrolo[3,2-b]pyrrole-1-carbonyl]-propyl}-2-methylamino-propionamide] came in with a cytotoxic concentration (CC50) in the assay with SK-OV-3 cells greater than 10000 nM. In addition, the values for the Kd on cIAP-1 BIR-3 and at XIAP BIR-3 were 1000 to 10000 nM and greater than 10000 nM, respectively.
With `CN[C@@H](C)C(=O)N[C@H](C(=O)N1CC[C@@H]2[C@H]1[C@H](c1c[nH]c3cc(F)ccc13)CN2S(C)(=O)=O)C(C)(C)C` [Example 49, N-{1-[6-(6-Fluoro-1H-indol-3-yl)-4-methanesulfonyl-hexahydro-pyrrolo[3,2-b]pyrrole-1-carbonyl]-2,2-dimethyl-propyl}-2-methylamino-propionamide], the CC50 in the assay with SK-OV-3 cells is greater than 10000 nM. Besides, the values for the Kd at cIAP-1 BIR-3 and on XIAP BIR-3 were 100 to 1000 nM and 1000 to 10000 nM, respectively.
The like results for `CN[C@@H](C)C(=O)N[C@H](C(=O)N1CC[C@@H]2[C@H]1[C@@H](c1c[nH]c3ccc(F)cc13)CN2C(C)=O)[C@@H](C)O` [Example 74, N-{1-[4-Acetyl-6-(5-fluoro-1H-indol-3-yl)-hexahydro-pyrrolo[3,2-b]pyrrole-1-carbonyl]-2-hydroxy-propyl}-2-methylamino-propionamide] were, in that order, 100 to 1000 nM, less than 100 nM and less than 100 nM.
The matching figures for `CN[C@@H](C)C(=O)N[C@H](C(=O)N1CC[C@@H]2[C@H]1[C@@H](c1c[nH]c3cc(F)ccc13)CN2c1ncccn1)[C@@H](C)OC` [Example 83, N-{1-[6-(6-Fluoro-1H-indol-3-yl)-4-pyrimidin-2-yl-hexahydro-pyrrolo[3,2-b]pyrrole-1-carbonyl]-2-methoxy-propyl}-2-methylamino-propionamide]: less than 100 nM, less than 100 nM and less than 100 nM.
The like results for `CN[C@@H](C)C(=O)N[C@H](C(=O)N1CC[C@@H]2[C@H]1[C@@H](c1c[nH]c3cc(F)ccc13)CN2C1CCCC1)[C@@H](C)O` [Example 15] were, in that order, 100 to 1000 nM, 100 to 1000 nM and 100 to 1000 nM.
`CN[C@@H](C)C(=O)N[C@@H](COC)C(=O)N1CC[C@@H]2[C@H]1[C@@H](c1c[nH]c3cc(F)ccc13)CN2C(C)=O` [Example 64, N-{2-[4-Acetyl-6-(6-fluoro-1H-indol-3-yl)-hexahydro-pyrrolo[3,2-b]pyrrol-1-yl]-1-methoxymethyl-2-oxo-ethyl}-2-methylamino-propionamide] had a CC50 in the assay on SK-OV-3 cells of 100 to 1000 nM. Moreover, the Kd is less than 100 nM on cIAP-1 BIR-3 and 100 to 1000 nM on XIAP BIR-3.
`CN[C@@H](C)C(=O)N[C@H](C(=O)N1CC[C@@H]2[C@H]1[C@@H](c1c[nH]c3cc(F)ccc13)CN2Cc1ncc(C)s1)C1CCCCC1` [Example 23, N-{1-Cyclohexyl-2-[6-(6-fluoro-1H-indol-3-yl)-4-(5-methyl-thiazol-2-ylmethyl)-hexahydro-pyrrolo[3,2-b]pyrrol-1-yl]-2-oxo-ethyl}-2-methylamino-propionamide] returned a 50% cytotoxic concentration (CC50) with SK-OV-3 cells of less than 100 nM. The Kd at cIAP-1 BIR-3 and on XIAP BIR-3 was less than 100 nM throughout.
The molecule `CN[C@@H](C)C(=O)N[C@H](C(=O)N1CC[C@@H]2[C@H]1[C@@H](c1c[nH]c3cc(F)ccc13)CN2S(C)(=O)=O)C(C)(C)C` [Example 50, N-{1-[6-(6-Fluoro-1H-indol-3-yl)-4-methanesulfonyl-hexahydro-pyrrolo[3,2-b]pyrrole-1-carbonyl]-2,2-dimethyl-propyl}-2-methylamino-propionamide] displayed a CC50 in the assay with SK-OV-3 cells of less than 100 nM. For the same molecule, the Kd on cIAP-1 BIR-3 and at XIAP BIR-3 was less than 100 nM throughout.
For `CN[C@@H](C)C(=O)N[C@H](C(=O)N1CC[C@@H]2[C@H]1[C@H](c1c[nH]c3cc(F)ccc13)CN2S(C)(=O)=O)[C@@H](C)O` [Example 55, N-{1-[6-(6-Fluoro-1H-indol-3-yl)-4-methanesulfonyl-hexahydro-pyrrolo[3,2-b]pyrrole-1-carbonyl]-2-hydroxy-propyl}-2-methylamino-propionamide], the CC50 in the assay with SK-OV-3 cells is greater than 10000 nM. Also, the dissociation constant (Kd) on cIAP-1 BIR-3 is 1000 to 10000 nM; at XIAP BIR-3 it was greater than 10000 nM.
`CN[C@@H](C)C(=O)N[C@H](C(=O)N1CC[C@@H]2[C@H]1[C@@H](c1c[nH]c3cc(F)ccc13)CN2Cc1ccccc1)C1CCCCC1` [Example 107] gave a CC50 in the assay with SK-OV-3 cells of 100 to 1000 nM. For the same molecule, the dissociation constant (Kd) on cIAP-1 BIR-3 and at XIAP BIR-3 was less than 100 nM in each case.
For the molecule `CN[C@@H](C)C(=O)N[C@@H](COC)C(=O)N1CC[C@@H]2[C@H]1[C@@H](c1c[nH]c3cc(F)ccc13)CN2C1CCCC1` [Example 13], the CC50 in the assay with SK-OV-3 cells is 1000 to 10000 nM. The dissociation constant (Kd) at cIAP-1 BIR-3 lay in the range of 100 to 1000 nM; at XIAP BIR-3, 1000 to 10000 nM.
`CN[C@@H](C)C(=O)N[C@H](C(=O)N1CC[C@@H]2[C@H]1[C@@H](c1c[nH]c3cc(F)ccc13)CN2c1ncccn1)[C@@H](C)O` [Example 82, N-{1-[6-(6-Fluoro-1H-indol-3-yl)-4-pyrimidin-2-yl-hexahydro-pyrrolo[3,2-b]pyrrole-1-carbonyl]-2-hydroxy-propyl}-2-methylamino-propionamide]: the CC50 in the assay with SK-OV-3 cells was less than 100 nM. The Kd at cIAP-1 BIR-3 and on XIAP BIR-3 was less than 100 nM in each case.
Turning to `CN[C@@H](C)C(=O)N[C@H](C(=O)N1CC[C@@H]2[C@H]1[C@@H](c1c[nH]c3cc(F)ccc13)CN2C(C)=O)C(C)(C)C` [Example 62, N-{1-[4-Acetyl-6-(6-fluoro-1H-indol-3-yl)-hexahydro-pyrrolo[3,2-b]pyrrole-1-carbonyl]-2,2-dimethyl-propyl}-2-methylamino-propionamide], in the assay on SK-OV-3 cells, the 50% cytotoxic concentration (CC50) was less than 100 nM. Moreover, the Kd at cIAP-1 BIR-3 and at XIAP BIR-3 was less than 100 nM each time.
In the assay on SK-OV-3 cells, `CN[C@@H](C)C(=O)N[C@@H](COC)C(=O)N1CC[C@@H]2[C@H]1[C@H](c1c[nH]c3cc(F)ccc13)CN2C1CCCC1` [Example 12, N-{2-[4-Cyclopentyl-6-(6-fluoro-1H-indol-3-yl)-hexahydro-pyrrolo[3,2-b]pyrrol-1-yl]-1-methoxymethyl-2-oxo-ethyl}-2-methylamino-propionamide] came in with a CC50 greater than 10000 nM. Moreover, the dissociation constant (Kd) at cIAP-1 BIR-3 is less than 100 nM; on XIAP BIR-3, 1000 to 10000 nM.
The matching figures for `CCOC(=O)CN1C[C@H](c2c[nH]c3cc(F)ccc23)[C@@H]2[C@H]1CCN2C(=O)[C@@H](NC(=O)[C@H](C)NC)C1CCCCC1` [Example 41, [4-[2-Cyclohexyl-2-(2-methylamino-propionylamino)-acetyl]-3-(6-fluoro-1H-indol-3-yl)-hexahydro-pyrrolo[3,2-b]pyrrol-1-yl]-acetic acid ethyl ester]: 100 to 1000 nM, less than 100 nM and less than 100 nM.
The like results for `C[C@H](N)C(=O)N[C@H](C(=O)N1CC[C@H]2NC[C@H](c3cn(Cc4ccccc4)c4cc(F)ccc34)[C@H]21)C1CCCCC1` [Example 92] were, in that order, 1000 to 10000 nM, less than 100 nM and less than 100 nM.
The matching figures for `CN[C@@H](C)C(=O)N[C@H](C(=O)N1CC[C@@H]2[C@H]1[C@@H](c1c[nH]c3cc(F)ccc13)CN2C(=O)OC)C1CCCCC1` [Example 36, 4-[2-Cyclohexyl-2-(2-methylamino-propionylamino)-acetyl]-3-(6-fluoro-1H-indol-3-yl)-hexahydro-pyrrolo[3,2-b]pyrrole-1-carboxylic acid methyl ester]: less than 100 nM, less than 100 nM and less than 100 nM.
Molecule `CN[C@@H](C)C(=O)N[C@@H](CO)C(=O)N1CC[C@H]2NC[C@H](c3c[nH]c4cc(F)ccc34)[C@H]21` [Example 33, N-{2-[6-(6-Fluoro-1H-indol-3-yl)-hexahydro-pyrrolo[3,2-b]pyrrol-1-yl]-1-hydroxymethyl-2-oxo-ethyl}-2-methylamino-propionamide] showed a CC50 in the assay on SK-OV-3 cells of 1000 to 10000 nM. Besides, the dissociation constant Kd at cIAP-1 BIR-3 and at XIAP BIR-3 was less than 100 nM in each case.
